Source: patent US20120201868A1, “TREATMENT AND PREVENTION OF HIV INFECTION” (priority 2009, published 2012)
Several values for one entry are separate records, joined by “and”; a condition that tells them apart may be missing. Identical values can stand only once. Like-named read-outs stand apart in the source and are kept apart here.

Tests used:
[1] = Plasma kinetics after intravenous injection of brecanavir solution in rats; assay type: in vivo; details: for clearance / AUC(0-t): rat, plasma, iv
Experimental: FIG. 1: Individual plasma concentration (ng/ml) versus time profiles following intravenous dosing of a solution of brecanavir in rats at 2 mg/kg.
Brecanavir was injected intraveneously as a 1 mg/ml solution (PEG400/saline 70:30) in rats (n=3) to determine the plasma kinetics of brecanavir in these animals. Plasma samples were collected from each of the rats at selected time points after administration; samples were analyzed for brecanavir concentrations with LC/MS. (See FIG. 1.)

[2] = Plasma kinetics after single subcutaneous injection of brecanavir solution in rats; assay type: in vivo, Sprague-Dawley rats; details: for bioavailability: s.c. solution, read-out: average absolute bioavailability (F)
Experimental: FIG. 2: Individual and mean plasma concentrations of brecanavir following single subcutaneous injection of a brecanavir solution to rats at 16 (Δ) and 56 mg/kg (∘).
Sprague-Dawley rats (Crl:CD® (SD)IGS) of 200-300 g were injected once subcutaneously with an aqueous solution of brecanavir at 16 (n=4) and at 56 (n=4) mg/kg. The solution was prepared one day before dose administration; brecanavir was formulated in an aqueous 30% (w/v) DMA/50% (w/v) PEG400 solution at 35 mg/ml. The ingredients of the solution were: brecanavir, DMA 30% (w/v), PEG 400 50% (w/v) and pyrogenic free water. The content of brecanavir in the formulation was checked using LC-UV. The concentration of brecanavir in the formulation was 35 mg/ml.
Blood samples (0.3 ml on EDTA) were collected from the rats via the tail vein at 1, 2, 4, 7 and 24 h and further at 3, 4, 8, 14, 29, 42 and 56 days after dosing. Plasma samples were analyzed for brecanavir with a qualified research method on LC/MS/MS. Plasma concentrations were plotted as a function of time after dosing (FIG. 2). Pharmacokinetic parameters were calculated using WinNonlin software. Subcutaneous injection of an aqueous solution of brecanavir in rats produced an extended release pharmacokinetic profile with duration of at least 8 weeks (FIG. 2).

[3] = system: wild type HIV as well as mutated variants; details: in words; cited from earlier work
[4] = in vivo, po; cited from earlier work
[5] = individual rats, i.v. solution, 2 mg/kg
[6] = mean of n=3 rats, i.v. solution, 2 mg/kg
[7] = 2 mg/kg, mean of n=3 rats, i.v. solution
[8] = individual rats, single s.c. solution, 16 mg/kg
[9] = individual rats, single s.c. solution, 56 mg/kg

Compound: Cc1nc(COc2ccc(C[C@H](NC(=O)O[C@H]3CO[C@H]4OCC[C@H]43)[C@H](O)CN(CC(C)C)S(=O)(=O)c3ccc4c(c3)OCO4)cc2)cs1 [brecanavir, [(3R,3aS,6aR)-2,3,3a,4,5,6a-hexahydro-furo[5,4-b]furan-3-yl] N-[(2S,3R)-4-(1,3-benzodioxol-5-ylsulfonyl-(2-methylpropyl)-amino)-3-hydroxy-1-[4-[(2-methyl-1,3-thiazol-4-yl)methoxy]phenyl]butan-2-yl]-carbamate]
- AUClast ([1]; individual rats, i.v. solution (PEG400/saline 70:30, 1 mg/ml), 2 mg/kg): 1066 ng·h/mL and 1149 ng·h/mL
- Cl [1, 5]: 30 mL/min/kg and 28.3 mL/min/kg
- Vc [1, 5]: 0.70 L/kg and 0.46 L/kg and 0.52 L/kg
- t1/2β [1, 5]: 2.3 h and 1.5 h (2×)
- Vc [1, 6]: 0.56 L/kg
- t1/2β [1, 6]: 1.8 h
- clearance ([1]; 2 mg/kg, individual rats, i.v. solution): 23.3 mL/min/kg
- AUC(0-t) ([1]; 2 mg/kg, individual rats, i.v. solution (PEG400/saline 70:30, 1 mg/ml), 2 mg/kg): 1370 ng·h/mL
- AUC(0-t) [1, 7]: 1200 ng·h/mL
- clearance [1, 7]: 28.3 mL/min/kg
- distribution volume ([1]; rats, i.v. injection, in words): moderate to small distribution volume
- plasma clearance ([1]; rats, i.v. injection, in words): moderate plasma clearance
- AUC(0-t) ([2]; Sprague-Dawley (Crl:CD(SD)IGS), rat, plasma, sc, 16 mg/kg, individual rats, single s.c. solution, 16 mg/kg): 6500 ng·h/mL
- AUC(0-t) ([2]; Sprague-Dawley (Crl:CD(SD)IGS), rat, plasma, sc, 16 mg/kg, mean of n=4 rats, single s.c. solution, 16 mg/kg): 8720 ng·h/mL
- Cmax ([2]; Sprague-Dawley (Crl:CD(SD)IGS), rat, plasma, sc, 16 mg/kg, mean of n=4 rats, single s.c. solution, 16 mg/kg, read-out: Cmax): 369 ng/mL
- AUC(0-t) ([2]; Sprague-Dawley (Crl:CD(SD)IGS), rat, plasma, sc, 56 mg/kg, individual rats, single s.c. solution, 56 mg/kg): 29900 ng·h/mL
- AUC(0-t) ([2]; Sprague-Dawley (Crl:CD(SD)IGS), rat, plasma, sc, 56 mg/kg, mean of n=4 rats, single s.c. solution, 56 mg/kg): 21700 ng·h/mL
- Cmax ([2]; Sprague-Dawley (Crl:CD(SD)IGS), rat, plasma, sc, 56 mg/kg, mean of n=4 rats, single s.c. solution, 56 mg/kg, read-out: Cmax): 322 ng/mL
- bioavailability ([2]; Sprague-Dawley (Crl:CD(SD)IGS), rat, plasma, sc, rats, 16 mg/kg): 91%
- bioavailability ([2]; Sprague-Dawley (Crl:CD(SD)IGS), rat, plasma, sc, rats, 56 mg/kg): 66%
- Cmax ([2]; individual rats, single s.c. solution (30% DMA/50% PEG400, 35 mg/ml), 16 mg/kg): 273 ng/mL and 289 ng/mL and 591 ng/mL and 234 ng/mL
- AUClast [2, 8]: 9630 ng·h/mL and 9291 ng·h/mL and 9448 ng·h/mL
- t1/2λz [2, 8]: 10.9 days and 5.58 days and 22.3 days and 17 days
- AUClast [2, 9]: 17602 ng·h/mL and 24284 ng·h/mL and 15221 ng·h/mL
- Cmax [2, 9]: 360 ng/mL and 204 ng/mL and 417 ng/mL and 305 ng/mL
- t1/2λz [2, 9]: 53 days and 16.2 days and 19.2 days and 44.67 days
- t1/2λz ([2]; mean of n=4 rats, single s.c. solution, 16 mg/kg): 14 days
- t1/2λz ([2]; mean of n=4 rats, single s.c. solution, 56 mg/kg): 33.2 days
- duration of extended release pharmacokinetic profile ([2]; rats, s.c. aqueous solution): at least 8 weeks
- absorption into the systemic circulation ([2]; rats, s.c. injection of a high dose solution, in words): very slow absorption
- activity against wild type HIV and mutated variants [3]: pronounced activity
- brecanavir exposures [4]: insufficient to inhibit PI-resistant virus
